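How tested: cells in 96-well plates exposed to compound for 48 hours at five concentrations. The concentration for full growth arrest is given as TGI.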
Legend:
Assay in all cases: NCI anticancer screen, dose series, 48 h
CAKI-1 renal = tested on: CAKI-1 renal
SN12C renal = tested on: SN12C renal
U251 CNS = tested on: U251 CNS
IGROV1 ovarian = tested on: IGROV1 ovarian
MALME-3M melanoma = tested on: MALME-3M melanoma
MDA-N = tested on: MDA-N
T-47D breast = tested on: T-47D breast
SK-MEL-2 melanoma = tested on: SK-MEL-2 melanoma
ACHN renal = tested on: ACHN renal
HS 578T breast = tested on: HS 578T breast
NCI/ADR-RES ovarian = tested on: NCI/ADR-RES ovarian
UACC-62 melanoma = tested on: UACC-62 melanoma
CCRF-CEM leukemia = tested on: CCRF-CEM leukemia
A498 renal = tested on: A498 renal
M14 melanoma = tested on: M14 melanoma
TK-10 renal = tested on: TK-10 renal
MDA-MB-435 = tested on: MDA-MB-435
NCI-H460 lung = tested on: NCI-H460 lung
BT-549 breast = tested on: BT-549 breast
HCT-116 colon = tested on: HCT-116 colon
NCI-H23 lung = tested on: NCI-H23 lung
NCI-H522 lung = tested on: NCI-H522 lung
EKVX NSCLC = tested on: EKVX NSCLC
SK-MEL-5 melanoma = tested on: SK-MEL-5 melanoma
UO-31 renal = tested on: UO-31 renal
LOX IMVI melanoma = tested on: LOX IMVI melanoma
HCT-15 colon = tested on: HCT-15 colon
SF-539 CNS = tested on: SF-539 CNS
RPMI-8226 leukemia = tested on: RPMI-8226 leukemia
HT29 colon = tested on: HT29 colon
SW-620 colon = tested on: SW-620 colon
SNB-75 CNS = tested on: SNB-75 CNS
COLO 205 colon = tested on: COLO 205 colon
K-562 leukemia = tested on: K-562 leukemia
PC-3 prostate = tested on: PC-3 prostate
SR leukemia = tested on: SR leukemia
KM12 colon = tested on: KM12 colon
HOP-92 NSCLC = tested on: HOP-92 NSCLC
OVCAR-5 ovarian = tested on: OVCAR-5 ovarian
SNB-19 CNS = tested on: SNB-19 CNS
A549 NSCLC = tested on: A549 NSCLC
SF-268 CNS = tested on: SF-268 CNS
OVCAR-8 ovarian = tested on: OVCAR-8 ovarian
RXF 393 renal = tested on: RXF 393 renal
NCI-H226 lung = tested on: NCI-H226 lung
UACC-257 melanoma = tested on: UACC-257 melanoma
MDA-MB-231 breast = tested on: MDA-MB-231 breast
SF-295 CNS = tested on: SF-295 CNS
MOLT-4 leukemia = tested on: MOLT-4 leukemia
SK-OV-3 ovarian = tested on: SK-OV-3 ovarian
OVCAR-4 ovarian = tested on: OVCAR-4 ovarian
HOP-62 NSCLC = tested on: HOP-62 NSCLC
HCC-2998 colon = tested on: HCC-2998 colon
OVCAR-3 ovarian = tested on: OVCAR-3 ovarian
786-0 renal = tested on: 786-0 renal

Measured: TGI

Cc1nc2c(=O)n(C)c(=O)n(C)c2o1
> 100 µM: all assays above
